Where two headings read alike, the source gives them in different places.
Tests used:
[1] = biological target: T1, hG-XIIA sPLA2 (Homo sapiens, UniProt Q9BZM1); assay: Inhibition of sPLA2 activity, colorimetric lecithin/red phenol assay, group XII; assay type: biochemical
T1 sequence (Q9BZM1 23-189): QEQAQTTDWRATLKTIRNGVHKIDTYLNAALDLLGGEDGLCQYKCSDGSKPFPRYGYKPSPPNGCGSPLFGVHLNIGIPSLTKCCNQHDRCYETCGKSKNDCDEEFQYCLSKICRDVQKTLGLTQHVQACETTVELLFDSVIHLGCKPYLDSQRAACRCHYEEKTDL
Method: (§3) Briefly, the substrate consisted of 3.5 mM lecithin in a mixture of 3 mM NaTDC “Sodium taurodeoxycholate”, 100 mM NaCl, 10 mM CaCl2, and 0.055 mM red phenol as colorimetric indicator in 100 ml H2O. The pH of the reaction mixture was adjusted to 7.6. The human group IB (pG-IB), IIA (hG-IIA), V (hG-V), X (hG-X), and XII (hG-XII) sPLA2 were solubilised in 10% acetonitrile at a concentration of 0.02 μg/μL. A volume of 10 μL of these PLA2 solutions was incubated with 10 μL of each compound for 20 min at room temperature. […] The inhibition percentage was calculated by comparison with a control experiment (absence of compound).

[2] = biological target: pG-IB sPLA2 (Sus scrofa, UniProt P00592); assay: Inhibition of sPLA2 activity, colorimetric lecithin/red phenol assay, group IB; assay type: biochemical, porcine
Method: as §3

[3] = biological target: T2, hG-IIA sPLA2 (Homo sapiens, UniProt P14555); assay: Inhibition of sPLA2 activity, colorimetric lecithin/red phenol assay, group IIA; assay type: biochemical
T2 sequence (P14555 21-144): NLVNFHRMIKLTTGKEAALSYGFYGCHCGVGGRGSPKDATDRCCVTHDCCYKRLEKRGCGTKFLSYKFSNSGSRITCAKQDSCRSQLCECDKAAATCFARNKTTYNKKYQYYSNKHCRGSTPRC
Method: as §3

[4] = biological target: T3, hG-X sPLA2 (Homo sapiens, UniProt O15496); assay: Inhibition of sPLA2 activity, colorimetric lecithin/red phenol assay, group X; assay type: biochemical
T3 sequence (O15496 43-165): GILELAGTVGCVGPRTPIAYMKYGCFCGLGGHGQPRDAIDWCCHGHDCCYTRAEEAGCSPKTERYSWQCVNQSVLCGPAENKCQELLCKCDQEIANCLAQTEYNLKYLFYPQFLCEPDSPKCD
Method: (§1) The test of inhibitory activity of sPLA2 was performed as described by Lobo de Araujo and Radvanyi[41]. Briefly, the substrate consisted of 3.5 mM lecithin in a mixture of 3 mM NaTDC “Sodium taurodeoxycholate”, 100 mM NaCl, 10 mM CaCl2, and 0.055 mM red phenol as colorimetric indicator in 100 ml H2O. The pH of the reaction mixture was adjusted to 7.6. The human group IB (pG-IB), IIA (hG-IIA), V (hG-V), X (hG-X), and XII (hG-XII) sPLA2 were solubilised in 10% acetonitrile at a concentration of 0.02 μg/μL. A volume of 10 μL of these PLA2 solutions was incubated with 10 μL of each compound for 20 min at room temperature. Then, 1 ml of the PLA2 substrate was added, and the kinetic of hydrolysis was followed during 5 min by reading the optical density at 558 nm. The inhibition percentage was calculated by comparison with a control experiment (absence of compound).
(§2) In order to evaluate the potential anti-inflammatory activity of the 12 studied compounds, we tested their inhibitory effects using several human sPLA2 isozymes, […], hG-V, hG-X, and hG-XII, involved in the inflammatory process and porcine pG-IB sPLA2 which hydrolyses dietary phospholipids.

[5] = biological target: T4, hG-V sPLA2 (Homo sapiens, UniProt P39877); assay: Inhibition of sPLA2 activity, colorimetric lecithin/red phenol assay, group V; assay type: biochemical
T4 sequence (P39877 21-138): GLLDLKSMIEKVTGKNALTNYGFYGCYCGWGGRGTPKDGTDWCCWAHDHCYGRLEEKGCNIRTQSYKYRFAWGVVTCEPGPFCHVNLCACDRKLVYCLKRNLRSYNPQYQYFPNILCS
Method: as §1, §2

[6] = ± standard deviation, duplicate, read-out: IC50 (µM) Against Phospholipase hG-XIIA
[7] = ± standard deviation, duplicate, read-out: IC50 (µM) Against Phospholipase pG-IB
[8] = ± standard deviation, duplicate, read-out: IC50 (µM) Against Phospholipase hG-IIA
[9] = ± standard deviation, duplicate, read-out: IC50 (µM) Against Phospholipase hG-X
[10] = ± standard deviation, duplicate, read-out: IC50 (µM) Against Phospholipase hG-V

Sequence of pG-IB sPLA2 (P00592 23-146): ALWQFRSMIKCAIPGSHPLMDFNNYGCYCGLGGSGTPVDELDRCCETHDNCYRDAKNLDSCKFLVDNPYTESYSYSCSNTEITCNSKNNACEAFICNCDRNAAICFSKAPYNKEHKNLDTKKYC

SMILES | melting point [°C] | IC50 [1, 6] [µM] | IC50 [2, 7] [µM] | IC50 [3, 8] [µM] | IC50 [4, 9] [µM] | IC50 [5, 10] [µM] | IC50 [1] [µM] | IC50 [2] [µM] | IC50 [3] [µM] | IC50 [4] [µM] | IC50 [5] [µM]
O=c1[nH]c2ccccc2nc1N/N=C/c1ccc(O)cc1O [Compound 3c, (E)-3-(2-(2,4-dihydroxybenzylidene)hydrazinyl)quinoxalin-2(1H)-one] | 292 to 294 | 6.75 ± 0.17 | 13.3 ± 0.5 | 3.71 ± 0.27 | 12.5 ± 0.87 | 9.45 ± 0.13 | – | – | – | – | –
CC1(C)CC[C@]2(C(=O)O)CC[C@]3(C)C(=CC[C@@H]4[C@@]5(C)CC[C@H](O)C(C)(C)[C@@H]5CC[C@]43C)[C@@H]2C1 [Oleanolic acid, reference compound] | – | – | – | – | – | 16.4 ± 1.53 | – | – | – | – | –
COc1cc(/C=N/Nc2nc3ccccc3[nH]c2=O)cc(OC)c1OC [Compound 3a, (E)-3-(2-(3,4,5-trimethoxybenzylidene)hydrazinyl)quinoxalin-2(1H)-one] | 258 to 260 | 3.04 ± 0.67 | 9.31 ± 0.36 | 2.48 ± 0.28 | 1.26 ± 0.05 | 1.46 ± 0.47 | – | – | – | – | –
O=c1[nH]c2ccccc2nc1N/N=C/c1ccc([N+](=O)[O-])cc1[N+](=O)[O-] [Compound 3b, (E)-3-(2-(2,4-dinitrobenzylidene)hydrazinyl)quinoxalin-2(1H)-one] | 283 to 285 | – | – | – | – | – | 2.28 ± 0.08 | 10.7 ± 0.67 | 5.36 ± 0.73 | 2.54 ± 0.42 | 1.12 ± 0.31
O=c1[nH]c2ccccc2nc1N/N=C/c1ccc(Cl)c(Cl)c1 [Compound 3d, (E)-3-(2-(3,4-dichlorobenzylidene)hydrazinyl)quinoxalin-2(1H)-one] | 244 to 246 | 10.5 ± 1.74 | 13.5 ± 1.02 | 4.5 ± 0.33 | 3 ± 0.63 | 5.7 ± 0.27 | – | – | – | – | –
COc1cccc(/C=N/Nc2nc3ccccc3[nH]c2=O)c1 [Compound 3f, (E)-3-(2-(3-methoxybenzylidene)hydrazinyl)quinoxalin-2(1H)-one] | – | 0.84 ± 0.07 | 12.4 ± 0.03 | 1.9 ± 0.3 | 0.33 ± 0.06 | 1.22 ± 0.3 | – | – | – | – | –
O=c1[nH]c2ccccc2nc1N/N=C/c1cccs1 [Compound 3e, (E)-3-(2-(thiophen-2-ylmethylene)hydrazinyl)quinoxalin-2(1H)-one] | – | 3.81 ± 0.99 | 10.7 ± 0.92 | 2.81 ± 0.33 | 4.43 ± 1.03 | 6.28 ± 0.4 | – | – | – | – | –
O=c1[nH]c2ccccc2n2c(-c3ccc([N+](=O)[O-])cc3[N+](=O)[O-])nnc12 [Compound 4b, 1-(2,4-Dinitrophenyl)-[1,2,4]triazolo[4,3-a]quinoxalin-4(5H)-one] | > 300 | – | – | – | – | – | 2.58 ± 0.43 | 13.6 ± 0.7 | 0.76 ± 0.01 | 1.05 ± 0.08 | 1.53 ± 0.14

More lines, main results first:

melting point [°C] | IC50 [1, 6] [µM] | IC50 [2, 7] [µM] | IC50 [3, 8] [µM] | IC50 [4, 9] [µM] | IC50 [5, 10] [µM] | SMILES | IC50 [1] [µM] | IC50 [2] [µM] | IC50 [3] [µM] | IC50 [4] [µM] | IC50 [5] [µM]
– | 1.41 ± 0.07 | 14.5 ± 0.87 | 1.81 ± 0.04 | 2.71 ± 0.07 | 3.04 ± 0.57 | O=c1[nH]c2ccccc2n2c(-c3ccc(Cl)c(Cl)c3)nnc12 [Compound 4d, 1-(3,4-Dichlorophenyl)-[1,2,4]triazolo[4,3-a]quinoxalin-4(5H)-one] | – | – | – | – | –
– | 18.6 ± 1.33 | 16.8 ± 0.93 | 16.8 ± 0.41 | 17.9 ± 0.94 | 18.6 ± 0.56 | O=c1[nH]c2ccccc2n2c(-c3cccs3)nnc12 [Compound 4e, 1-(Thiophen-2-yl)-[1,2,4]triazolo[4,3-a]quinoxalin-4(5H)-one] | – | – | – | – | –
> 300 | 0.91 ± 0.05 | 14.8 ± 0.44 | 1.32 ± 0.16 | 0.61 ± 0.03 | 1.05 ± 0.13 | O=c1[nH]c2ccccc2n2c(-c3ccc(O)cc3O)nnc12 [Compound 4c, 1-(2,4-Dihydroxyphenyl)-[1,2,4]triazolo[4,3-a]quinoxalin-4(5H)-one] | – | – | – | – | –
227 to 229 | 13.2 ± 0.21 | 14.2 ± 1.22 | 13.05 ± 0.05 | 12.2 ± 0.47 | 11.3 ± 0.08 | COc1cc(-c2nnc3c(=O)[nH]c4ccccc4n23)cc(OC)c1OC [Compound 4a, 1-(3,4,5-Trimethoxyphenyl)-[1,2,4]triazolo[4,3-a]quinoxalin-4(5H)-one] | – | – | – | – | –
286 to 288 | 15.8 ± 1.29 | 16 ± 1.71 | 17.1 ± 0.41 | 14.4 ± 0.52 | 15.8 ± 0.85 | COc1cccc(-c2nnc3c(=O)[nH]c4ccccc4n23)c1 [Compound 4f, 1-(3-Methoxyphenyl)-[1,2,4]triazolo[4,3-a]quinoxalin-4(5H)-one] | – | – | – | – | –

— paper PMC6009887, “New quinoxalinone inhibitors targeting secreted phospholipase A2 and α-glucosidase” (Journal of Enzyme Inhibition and Medicinal Chemistry, 2017)
